From article PMC5776081, “The Stoichiometric Interaction of the Hsp90-Sgt1-Rar1 Complex by CD and SRCD Spectroscopy” (Frontiers in Molecular Biosciences, 2018)
pKd: −log10 of the molar value.

Target: T1, Rar1 (Arabidopsis thaliana, UniProt Q9SE33)
T1 sequence (Q9SE33 1-226): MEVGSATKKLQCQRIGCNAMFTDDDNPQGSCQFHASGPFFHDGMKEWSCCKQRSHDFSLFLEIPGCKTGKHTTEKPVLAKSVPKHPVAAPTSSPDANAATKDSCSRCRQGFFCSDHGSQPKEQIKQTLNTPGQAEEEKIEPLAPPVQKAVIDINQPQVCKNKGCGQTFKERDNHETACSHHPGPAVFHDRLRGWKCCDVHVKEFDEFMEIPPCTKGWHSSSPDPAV
Test: near-UV CD titration, non-linear fit at […] nm
Conditions: 4 °C; 1:1 site; authors call it weak non-specific binding; apparent Kd

pKd: 2.70
Compound: Nc1ncnc2c1ncn2[C@@H]1O[C@H](COP(=O)(O)OP(=O)(O)O)[C@@H](O)[C@H]1O [ADP]
